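Tested at 5 concentrations; 48 h exposure; 96-well plates; endpoints linearly interpolated, else capped at highest concentration. TGI: concentration producing complete growth inhibition.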
Assays:
Experiment in all cases: NCI-60 cell line screen, 48 h
786-0 renal = system: 786-0 renal
A498 renal = system: A498 renal
A549 NSCLC = system: A549 NSCLC
ACHN renal = system: ACHN renal
CAKI-1 renal = system: CAKI-1 renal
CCRF-CEM leukemia = system: CCRF-CEM leukemia
DU-145 prostate = system: DU-145 prostate
EKVX NSCLC = system: EKVX NSCLC
HCC-2998 colon = system: HCC-2998 colon
HCT-116 colon = system: HCT-116 colon
HCT-15 colon = system: HCT-15 colon
HL-60(TB) leukemia = system: HL-60(TB) leukemia
HOP-62 NSCLC = system: HOP-62 NSCLC
HOP-92 NSCLC = system: HOP-92 NSCLC
HS 578T breast = system: HS 578T breast
HT29 colon = system: HT29 colon
IGROV1 ovarian = system: IGROV1 ovarian
K-562 leukemia = system: K-562 leukemia
KM12 colon = system: KM12 colon
LOX IMVI melanoma = system: LOX IMVI melanoma
M14 melanoma = system: M14 melanoma
MALME-3M melanoma = system: MALME-3M melanoma
MCF7 breast = system: MCF7 breast
MDA-MB-231 breast = system: MDA-MB-231 breast
MDA-MB-435 = system: MDA-MB-435
MDA-N = system: MDA-N
MOLT-4 leukemia = system: MOLT-4 leukemia
NCI-H226 lung = system: NCI-H226 lung
NCI-H23 lung = system: NCI-H23 lung
NCI-H460 lung = system: NCI-H460 lung
NCI-H522 lung = system: NCI-H522 lung
NCI/ADR-RES ovarian = system: NCI/ADR-RES ovarian
OVCAR-3 ovarian = system: OVCAR-3 ovarian
OVCAR-4 ovarian = system: OVCAR-4 ovarian
OVCAR-5 ovarian = system: OVCAR-5 ovarian
OVCAR-8 ovarian = system: OVCAR-8 ovarian
RPMI-8226 leukemia = system: RPMI-8226 leukemia
RXF 393 renal = system: RXF 393 renal
SF-268 CNS = system: SF-268 CNS
SF-539 CNS = system: SF-539 CNS
SK-MEL-28 melanoma = system: SK-MEL-28 melanoma
SK-MEL-5 melanoma = system: SK-MEL-5 melanoma
SN12C renal = system: SN12C renal
SNB-19 CNS = system: SNB-19 CNS
SNB-75 CNS = system: SNB-75 CNS
SR leukemia = system: SR leukemia
SW-620 colon = system: SW-620 colon
T-47D breast = system: T-47D breast
TK-10 renal = system: TK-10 renal
U251 CNS = system: U251 CNS
UACC-257 melanoma = system: UACC-257 melanoma
UO-31 renal = system: UO-31 renal
COLO 205 colon = system: COLO 205 colon
PC-3 prostate = system: PC-3 prostate
SF-295 CNS = system: SF-295 CNS
SK-MEL-2 melanoma = system: SK-MEL-2 melanoma
SK-OV-3 ovarian = system: SK-OV-3 ovarian
UACC-62 melanoma = system: UACC-62 melanoma

`COC(=O)c1cccc(C)c1C1CN=NC12Cc1cc(C)cc(C)c1C2=O` (configuration not stated) gave a TGI (786-0 renal) of over 100 µM, a TGI (A498 renal) of over 100 µM and a TGI (A549 NSCLC) of over 100 µM. For the same molecule, the TGI (ACHN renal) was over 100 µM, the TGI (CAKI-1 renal) was over 100 µM and the TGI (CCRF-CEM leukemia) was over 100 µM. It also gave a TGI (DU-145 prostate) of over 100 µM, a TGI (EKVX NSCLC) of 90.3 µM and a TGI (HCC-2998 colon) of 76.7 µM. It also gave a TGI (HCT-116 colon) of 66.5 µM, a TGI (HCT-15 colon) of over 100 µM and a TGI (HL-60(TB) leukemia) of 47.5 µM. The TGI (HOP-62 NSCLC) was over 100 µM, the TGI (HOP-92 NSCLC) was over 100 µM and the TGI (HS 578T breast) was over 100 µM. The TGI (HT29 colon) was 86.7 µM, the TGI (IGROV1 ovarian) was over 100 µM and the TGI (K-562 leukemia) was over 100 µM. For the same molecule, the TGI (KM12 colon) was over 100 µM, the TGI (LOX IMVI melanoma) was over 100 µM and the TGI (M14 melanoma) was 93.6 µM. It also gave a TGI (MALME-3M melanoma) of over 100 µM, a TGI (MCF7 breast) of over 100 µM and a TGI (MDA-MB-231 breast) of 77.6 µM. For the same molecule, the TGI (MDA-MB-435) was 66.1 µM, the TGI (MDA-N) was over 100 µM and the TGI (MOLT-4 leukemia) was 74.9 µM. The TGI (NCI-H226 lung) was over 100 µM, the TGI (NCI-H23 lung) was over 100 µM and the TGI (NCI-H460 lung) was over 100 µM. It also gave a TGI (NCI-H522 lung) of over 100 µM, a TGI (NCI/ADR-RES ovarian) of over 100 µM and a TGI (OVCAR-3 ovarian) of over 100 µM. It also gave a TGI (OVCAR-4 ovarian) of over 100 µM, a TGI (OVCAR-5 ovarian) of over 100 µM and a TGI (OVCAR-8 ovarian) of over 100 µM. The TGI (RPMI-8226 leukemia) was over 100 µM, the TGI (RXF 393 renal) was over 100 µM and the TGI (SF-268 CNS) was over 100 µM. The TGI (SF-539 CNS) was over 100 µM, the TGI (SK-MEL-28 melanoma) was over 100 µM and the TGI (SK-MEL-5 melanoma) was 77 µM. The TGI (SN12C renal) was over 100 µM, the TGI (SNB-19 CNS) was over 100 µM and the TGI (SNB-75 CNS) was 83.1 µM. The TGI (SR leukemia) was over 100 µM, the TGI (SW-620 colon) was over 100 µM and the TGI (T-47D breast) was 53.7 µM. For the same molecule, the TGI (TK-10 renal) was over 100 µM, the TGI (U251 CNS) was over 100 µM and the TGI (UACC-257 melanoma) was over 100 µM. For the same molecule, the TGI (UO-31 renal) was over 100 µM.

`CC1(C)[C@@H](Cn2cc(I)c(=O)[nH]c2=O)CC[C@@]1(C)CO` gave a TGI (786-0 renal) of over 100 µM, a TGI (A498 renal) of over 100 µM and a TGI (A549 NSCLC) of over 100 µM. For the same molecule, the TGI (ACHN renal) was over 100 µM, the TGI (CAKI-1 renal) was over 100 µM and the TGI (CCRF-CEM leukemia) was over 100 µM. For the same molecule, the TGI (COLO 205 colon) was over 100 µM, the TGI (DU-145 prostate) was over 100 µM and the TGI (EKVX NSCLC) was over 100 µM. The TGI (HCC-2998 colon) was over 100 µM, the TGI (HCT-116 colon) was over 100 µM and the TGI (HCT-15 colon) was over 100 µM. It also gave a TGI (HOP-62 NSCLC) of over 100 µM, a TGI (HOP-92 NSCLC) of over 100 µM and a TGI (HS 578T breast) of over 100 µM. It also gave a TGI (K-562 leukemia) of over 100 µM, a TGI (KM12 colon) of over 100 µM and a TGI (LOX IMVI melanoma) of over 100 µM. For the same molecule, the TGI (M14 melanoma) was over 100 µM, the TGI (MDA-MB-231 breast) was over 100 µM and the TGI (MDA-MB-435) was over 100 µM. The TGI (MDA-N) was over 100 µM, the TGI (NCI-H226 lung) was over 100 µM and the TGI (NCI/ADR-RES ovarian) was over 100 µM. It also gave a TGI (OVCAR-3 ovarian) of over 100 µM, a TGI (OVCAR-4 ovarian) of over 100 µM and a TGI (OVCAR-5 ovarian) of over 100 µM. The TGI (PC-3 prostate) was over 100 µM, the TGI (RXF 393 renal) was over 100 µM and the TGI (SF-268 CNS) was over 100 µM. The TGI (SF-295 CNS) was over 100 µM, the TGI (SK-MEL-2 melanoma) was over 100 µM and the TGI (SK-MEL-28 melanoma) was over 100 µM. For the same molecule, the TGI (SK-MEL-5 melanoma) was over 100 µM, the TGI (SK-OV-3 ovarian) was over 100 µM and the TGI (SN12C renal) was over 100 µM. It also gave a TGI (SNB-19 CNS) of over 100 µM, a TGI (SNB-75 CNS) of over 100 µM and a TGI (SW-620 colon) of over 100 µM. It also gave a TGI (T-47D breast) of over 100 µM, a TGI (TK-10 renal) of over 100 µM and a TGI (U251 CNS) of over 100 µM. For the same molecule, the TGI (UACC-257 melanoma) was over 100 µM, the TGI (UACC-62 melanoma) was over 100 µM and the TGI (UO-31 renal) was over 100 µM.

From PubChem BioAssay (NCI)
